Numbers after ± are expanded uncertainties.
Test: xn = mol fraction of the nth substance listed

Cc1nccnc1C [2,3-dimethylpyrazine] + O=C=O
Fluid (supercritical or subcritical phases), Linear displacement technique
Conditions | mass density [kg/m3]
328.55 K, 14100 kPa, x1 = 0.291 | 857 ± 34
328.55 K, 15620 kPa, x1 = 0.01 | 757 ± 31
328.55 K, 16930 kPa, x1 = 0.291 | 859 ± 34
329.65 K, 6660 kPa, x1 = 0.565 | 912 ± 36
329.65 K, 8240 kPa, x1 = 0.565 | 914 ± 37
329.65 K, 14590 kPa, x1 = 0.565 | 919 ± 37
329.75 K, 12170 kPa, x1 = 0.033 | 656 ± 27
329.75 K, 12970 kPa, x1 = 0.033 | 684 ± 28
329.75 K, 14310 kPa, x1 = 0.033 | 713 ± 29
329.75 K, 16930 kPa, x1 = 0.033 | 765 ± 31
329.85 K, 12860 kPa, x1 = 0.108 | 845 ± 36
329.85 K, 14590 kPa, x1 = 0.108 | 855 ± 34
329.85 K, 19000 kPa, x1 = 0.108 | 879 ± 35
330.35 K, 11790 kPa, x1 = 0.157 | 902 ± 39
330.35 K, 14240 kPa, x1 = 0.157 | 919 ± 37
330.35 K, 17550 kPa, x1 = 0.157 | 937 ± 38
331.65 K, 11550 kPa, x1 = 0.086 | 645 ± 26
331.65 K, 12210 kPa, x1 = 0.057 | 762 ± 32
331.65 K, 12830 kPa, x1 = 0.057 | 785 ± 33
331.65 K, 14030 kPa, x1 = 0.086 | 676 ± 28
331.65 K, 15620 kPa, x1 = 0.086 | 689 ± 28
331.65 K, 19380 kPa, x1 = 0.057 | 886 ± 36
332.85 K, 12790 kPa, x1 = 0.049 | 767 ± 32
332.85 K, 14620 kPa, x1 = 0.049 | 811 ± 33
332.85 K, 15690 kPa, x1 = 0.049 | 834 ± 35
333.95 K, 5520 kPa, x1 = 0.736 | 855 ± 34
333.95 K, 12830 kPa, x1 = 0.736 | 858 ± 34
333.95 K, 19520 kPa, x1 = 0.736 | 858 ± 34
335.15 K, 12970 kPa, x1 = 0.027 | 605 ± 28
335.15 K, 13550 kPa, x1 = 0.027 | 633 ± 28
335.15 K, 14590 kPa, x1 = 0.027 | 668 ± 29
338.75 K, 11790 kPa, x1 = 0.184 | 860 ± 34
338.75 K, 14170 kPa, x1 = 0.184 | 874 ± 35
338.75 K, 16720 kPa, x1 = 0.184 | 886 ± 35
340.75 K, 12790 kPa, x1 = 0.108 | 786 ± 33
340.75 K, 14030 kPa, x1 = 0.108 | 810 ± 33
340.75 K, 17340 kPa, x1 = 0.108 | 837 ± 34
340.75 K, 20170 kPa, x1 = 0.108 | 858 ± 34
341.25 K, 10790 kPa, x1 = 0.01 | 327 ± 20
341.95 K, 8900 kPa, x1 = 0.433 | 918 ± 37
341.95 K, 12340 kPa, x1 = 0.433 | 926 ± 37
341.95 K, 17480 kPa, x1 = 0.433 | 934 ± 37
341.95 K, 23830 kPa, x1 = 0.433 | 945 ± 38
343.15 K, 13410 kPa, x1 = 0.057 | 679 ± 28
343.15 K, 14660 kPa, x1 = 0.057 | 719 ± 30
343.15 K, 16170 kPa, x1 = 0.057 | 750 ± 31
343.25 K, 14210 kPa, x1 = 0.033 | 585 ± 26
343.25 K, 14930 kPa, x1 = 0.033 | 615 ± 26
343.25 K, 16340 kPa, x1 = 0.033 | 657 ± 28
345.05 K, 14100 kPa, x1 = 0.049 | 698 ± 30
345.05 K, 15410 kPa, x1 = 0.049 | 745 ± 31
345.05 K, 17240 kPa, x1 = 0.049 | 791 ± 32
345.85 K, 15140 kPa, x1 = 0.086 | 626 ± 25
345.85 K, 15900 kPa, x1 = 0.086 | 638 ± 33
347.05 K, 11760 kPa, x1 = 0.291 | 853 ± 34
347.05 K, 14070 kPa, x1 = 0.291 | 855 ± 34
347.05 K, 18860 kPa, x1 = 0.291 | 857 ± 34
347.65 K, 8210 kPa, x1 = 0.565 | 895 ± 36
347.65 K, 11830 kPa, x1 = 0.565 | 901 ± 36
347.65 K, 18520 kPa, x1 = 0.565 | 907 ± 36
347.85 K, 12690 kPa, x1 = 0.184 | 828 ± 33
347.85 K, 13450 kPa, x1 = 0.184 | 837 ± 34
347.85 K, 15690 kPa, x1 = 0.184 | 853 ± 35
348.35 K, 9900 kPa, x1 = 0.433 | 906 ± 36
348.35 K, 15140 kPa, x1 = 0.433 | 917 ± 37
348.35 K, 23070 kPa, x1 = 0.433 | 931 ± 37
350.75 K, 14660 kPa, x1 = 0.108 | 747 ± 30
350.75 K, 15690 kPa, x1 = 0.108 | 766 ± 31
350.75 K, 17410 kPa, x1 = 0.108 | 790 ± 33
352.25 K, 14550 kPa, x1 = 0.057 | 618 ± 26
352.25 K, 16340 kPa, x1 = 0.057 | 678 ± 28
352.25 K, 18760 kPa, x1 = 0.057 | 731 ± 30
354.15 K, 16900 kPa, x1 = 0.157 | 847 ± 35
354.15 K, 19280 kPa, x1 = 0.157 | 865 ± 35
354.15 K, 25210 kPa, x1 = 0.157 | 904 ± 36
355.25 K, 14550 kPa, x1 = 0.049 | 608 ± 28
355.25 K, 15410 kPa, x1 = 0.049 | 652 ± 28
355.25 K, 17280 kPa, x1 = 0.049 | 702 ± 29
357.15 K, 13760 kPa, x1 = 0.433 | 897 ± 36
357.15 K, 17310 kPa, x1 = 0.433 | 905 ± 36
357.15 K, 21970 kPa, x1 = 0.433 | 914 ± 37
358.65 K, 12930 kPa, x1 = 0.291 | 848 ± 34
358.65 K, 15410 kPa, x1 = 0.291 | 852 ± 34
358.65 K, 20590 kPa, x1 = 0.291 | 855 ± 34
360.55 K, 6970 kPa, x1 = 0.736 | 846 ± 34
360.55 K, 11100 kPa, x1 = 0.736 | 850 ± 34
360.55 K, 17970 kPa, x1 = 0.736 | 853 ± 34
362.95 K, 16930 kPa, x1 = 0.086 | 561 ± 25
362.95 K, 17410 kPa, x1 = 0.086 | 574 ± 24
362.95 K, 19410 kPa, x1 = 0.086 | 604 ± 25
365.05 K, 16480 kPa, x1 = 0.057 | 573 ± 24
365.05 K, 18310 kPa, x1 = 0.057 | 636 ± 27
365.05 K, 20170 kPa, x1 = 0.057 | 679 ± 28
365.05 K, 23210 kPa, x1 = 0.057 | 725 ± 29
365.55 K, 19340 kPa, x1 = 0.184 | 818 ± 33
365.55 K, 24520 kPa, x1 = 0.184 | 848 ± 34
365.55 K, 45000 kPa, x1 = 0.184 | 900 ± 37
368.45 K, 17140 kPa, x1 = 0.108 | 690 ± 32
368.45 K, 19480 kPa, x1 = 0.108 | 731 ± 30
368.45 K, 25100 kPa, x1 = 0.108 | 791 ± 32
368.45 K, 34900 kPa, x1 = 0.108 | 848 ± 34
371.85 K, 15900 kPa, x1 = 0.027 | 402 ± 18
371.85 K, 17140 kPa, x1 = 0.027 | 432 ± 21
373.25 K, 16720 kPa, x1 = 0.049 | 558 ± 25
373.25 K, 17900 kPa, x1 = 0.049 | 605 ± 26
373.25 K, 20100 kPa, x1 = 0.049 | 667 ± 28
373.55 K, 9210 kPa, x1 = 0.565 | 867 ± 35
373.55 K, 12380 kPa, x1 = 0.565 | 873 ± 35
373.55 K, 18520 kPa, x1 = 0.565 | 883 ± 35
374.25 K, 17410 kPa, x1 = 0.086 | 507 ± 21
374.25 K, 18100 kPa, x1 = 0.086 | 521 ± 22
374.25 K, 18900 kPa, x1 = 0.086 | 540 ± 23
375.05 K, 18100 kPa, x1 = 0.033 | 466 ± 20
375.05 K, 19410 kPa, x1 = 0.033 | 499 ± 21
375.05 K, 20690 kPa, x1 = 0.033 | 526 ± 22
375.85 K, 20590 kPa, x1 = 0.157 | 805 ± 35
375.85 K, 23340 kPa, x1 = 0.157 | 829 ± 33
375.85 K, 26520 kPa, x1 = 0.157 | 856 ± 34
380.65 K, 12760 kPa, x1 = 0.433 | 852 ± 34
380.65 K, 16100 kPa, x1 = 0.433 | 861 ± 34
380.65 K, 21660 kPa, x1 = 0.433 | 876 ± 35
381.45 K, 15210 kPa, x1 = 0.291 | 831 ± 33
381.45 K, 15690 kPa, x1 = 0.291 | 830 ± 33
381.45 K, 21340 kPa, x1 = 0.291 | 841 ± 34

Liquid, linear displacement
Conditions | mass density [kg/m3]
328.55 K, x1 = 0.291 | 855 ± 34
329.65 K, x1 = 0.565 | 909 ± 36
329.75 K, x1 = 0.033 | 560 ± 23
329.85 K, x1 = 0.108 | 822 ± 33
330.35 K, x1 = 0.157 | 884 ± 35
331.65 K, x1 = 0.057 | 719 ± 29
331.65 K, x1 = 0.086 | 627 ± 25
332.85 K, x1 = 0.049 | 708 ± 28
333.95 K, x1 = 0.736 | 854 ± 34
338.75 K, x1 = 0.184 | 852 ± 34
340.75 K, x1 = 0.108 | 771 ± 31
341.95 K, x1 = 0.433 | 915 ± 37
343.15 K, x1 = 0.057 | 639 ± 26
345.05 K, x1 = 0.049 | 638 ± 26
345.85 K, x1 = 0.086 | 579 ± 23
347.05 K, x1 = 0.291 | 852 ± 34
347.65 K, x1 = 0.565 | 893 ± 36
347.85 K, x1 = 0.184 | 826 ± 33
348.35 K, x1 = 0.433 | 902 ± 36
350.75 K, x1 = 0.108 | 725 ± 29
354.15 K, x1 = 0.157 | 814 ± 33
357.15 K, x1 = 0.433 | 886 ± 35
358.65 K, x1 = 0.291 | 848 ± 34
360.55 K, x1 = 0.736 | 845 ± 34
362.95 K, x1 = 0.086 | 530 ± 22
365.55 K, x1 = 0.184 | 774 ± 32
368.45 K, x1 = 0.108 | 663 ± 27
373.55 K, x1 = 0.565 | 865 ± 35
374.25 K, x1 = 0.086 | 490 ± 21
375.85 K, x1 = 0.157 | 764 ± 31
380.65 K, x1 = 0.433 | 848 ± 34
381.45 K, x1 = 0.291 | 829 ± 33

— the NIST ThermoML archive (doi:10.1021/je0601457)
